Results published in patent publication US8513229B2, “4-Azetidinyl-1-phenyl-cyclohexane antagonists of CCR2” (Janssen Pharmaceutica NV, priority 2009, dated 2013).

Each compound was assayed against T1, CCR2 (Homo sapiens, UniProt P41597) (assay: MCP-1 Receptor Binding Assay in THP-1 Cells). Details: 0.5 nM 125I labeled MCP-1, 2 hours at 30° C., read-out: Inhibition of MCP-1 Binding IC50 CCR2 Binding.
T1 construct: host or cells: THP-1 human monocytic cells
T1 sequence (P41597 1-360 isoform P41597-2): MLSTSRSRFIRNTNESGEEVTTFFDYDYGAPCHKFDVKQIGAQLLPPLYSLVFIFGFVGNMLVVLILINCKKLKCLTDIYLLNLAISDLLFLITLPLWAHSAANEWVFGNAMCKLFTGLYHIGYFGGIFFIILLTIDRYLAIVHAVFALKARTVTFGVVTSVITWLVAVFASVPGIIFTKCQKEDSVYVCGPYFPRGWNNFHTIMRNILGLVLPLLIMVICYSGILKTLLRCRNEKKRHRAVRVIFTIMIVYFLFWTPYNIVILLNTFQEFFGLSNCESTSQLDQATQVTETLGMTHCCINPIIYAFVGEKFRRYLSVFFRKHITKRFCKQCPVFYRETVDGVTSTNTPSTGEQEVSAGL
Method: MCP-1 Receptor Binding Assay in THP-1 Cells
Human monocytic cell line THP-1 cells were obtained from American Type Culture Collection (Manassas, Va., USA). […] The cell density was maintained […].
1 μM cold MCP-1 was used for nonspecific binding.

Row | Compound | IC50
1 | NC(=O)c1ccc(C2(O)CCC(N3CC(NC(=O)CNC(=O)c4cccc(C(F)(F)F)c4)C3)CC2)cc1 (single isomer, unassigned) [Example 55a, N-({1-[4-(4-benzamide)-4-hydroxy-cyclohexyl]-azetidin-3-ylcarbamoyl}-methyl)-3-trifluoromethyl-benzamide] | 5300 nM
2 | COc1ccccc1C1(O)CCC(N2CC(NC(=O)CNC(=O)c3cccc(C(F)(F)F)c3)C2)CC1 (single isomer, unassigned) [Example 56a, N-({1-[4-Hydroxy-4-(2-methoxy-phenyl)-cyclohexyl]-azetidin-3-ylcarbamoyl}-methyl)-3-trifluoromethyl-benzamide] | 5200 nM
3 | COc1ccc(C2(O)CCC(N3CC(NC(=O)CNC(=O)c4cccc(C(F)(F)F)c4)C3)CC2)cc1F (single isomer, unassigned) [Example 57a, N-({1-[4-(3-Fluoro-4-methoxy-phenyl)-4-hydroxy-cyclohexyl]-azetidin-3-ylcarbamoyl}-methyl)-3-trifluoromethyl-benzamide] | 33 nM
4 | Nc1cccc(C2(O)CCC(N3CC(NC(=O)CNC(=O)c4cccc(C(F)(F)F)c4)C3)CC2)c1 (single isomer, unassigned) [Example 58a, N-({1-[4-(3-Amino-phenyl)-4-hydroxy-cyclohexyl]-azetidin-3-ylcarbamoyl}-methyl)-3-trifluoromethyl-benzamide] | 52 nM
5 | CCn1c(=O)oc2ccc(C3(O)CCC(N4CC(NC(=O)CNC(=O)c5cccc(C(F)(F)F)c5)C4)CC3)cc21 (single isomer, unassigned) [Example 65a, N-({1-[4-(3-Ethyl-2-oxo-2,3-dihydro-benzooxazol-5-yl)-4-hydroxy-cyclohexyl]-azetidin-3-ylcarbamoyl}-methyl)-3-trifluoromethyl-benzamide] | 150 nM
6 | O=C(CNC(=O)c1ccc(F)c(C(F)(F)F)c1)NC1CN(C2CCC(c3ccccc3)CC2)C1 (single isomer, unassigned) [Example 71a, 4-Fluoro-N-{[1-(4-phenyl-cyclohexyl)-azetidin-3-ylcarbamoyl]-methyl}-3-trifluoromethyl-benzamide] | 200 nM
7 | O=C(CNC(=O)c1cc(C(F)(F)F)cc(C(F)(F)F)c1)NC1CN(C2CCC(c3ccccc3)CC2)C1 (single isomer, unassigned) [Example 75a, N-{[1-(4-Phenyl-cyclohexyl)-azetidin-3-ylcarbamoyl]-methyl}-3,5-bis-trifluoromethyl-benzamide] | 4700 nM
8 | O=C(CNC(=O)c1cc(F)cc(C(F)(F)F)c1)NC1CN(C2CCC(c3ccccc3)CC2)C1 (single isomer, unassigned) [Example 76a, 3-Fluoro-N-{[1-(4-phenyl-cyclohexyl)-azetidin-3-ylcarbamoyl]-methyl}-5-trifluoromethyl-benzamide] | 220 nM
9 | NC1(c2ccccc2)CCC(N2CC(NC(=O)CNC(=O)c3cccc(C(F)(F)F)c3)C2)CC1 (single isomer, unassigned) [Example 84a, N-{[1-(4-Amino-4-phenyl-cyclohexyl)-azetidin-3-ylcarbamoyl]-methyl}-3-trifluoromethyl-benzamide] | 240 nM
10 | NC1(c2ccc3c(c2)OCO3)CCC(N2CC(NC(=O)CNC(=O)c3cccc(C(F)(F)F)c3)C2)CC1 (single isomer, unassigned) [Example 85a, N-{[1-(4-Amino-4-benzo[1,3]dioxol-5-yl-cyclohexyl)-azetidin-3-ylcarbamoyl]-methyl}-3-trifluoromethyl-benzamide] | 280 nM
11 | COc1cccc(C2(N)CCC(N3CC(NC(=O)CNC(=O)c4cccc(C(F)(F)F)c4)C3)CC2)c1 (single isomer, unassigned) [Example 87a, N-({1-[4-Amino-4-(3-methoxy-phenyl)-cyclohexyl]-azetidin-3-ylcarbamoyl}-methyl)-3-trifluoromethyl-benzamide] | 330 nM
12 | O=C(CNC(=O)c1cccc(C(F)(F)F)c1)NC1CN(C2CCC(c3ccc(C(=O)O)cc3)CC2)C1 (stereo not drawn) [Example 10, 4-(4-{3-[2-(3-Trifluoromethyl-benzoylamino)-acetylamino]-azetidin-1-yl}-cyclohexyl)-benzoic acid] | 70 nM
13 | O=C(CNC(=O)c1cccc(C(F)(F)F)c1)NC1CN(C2CCC(c3cccc(C(=O)O)c3)CC2)C1 (stereo not drawn) [Example 12, 3-(4-{3-[2-(3-Trifluoromethyl-benzoylamino)-acetylamino]-azetidin-1-yl}-cyclohexyl)-benzoic acid] | 220 nM
14 | O=C(CNC(=O)c1cccc(C(F)(F)F)c1)NC1CN(C2CCC(c3ccc(N4CCCC4)cc3)CC2)C1 (stereo not drawn) [Example 13, N-({1-[4-(4-Pyrrolidin-1-yl-phenyl)-cyclohexyl]-azetidin-3-ylcarbamoyl}-methyl)-3-trifluoromethyl-benzamide] | 61 nM
15 | Nc1ccc(C2CCC(N3CC(NC(=O)CNC(=O)c4cccc(C(F)(F)F)c4)C3)CC2)cc1 (stereo not drawn) [Example 15, N-({1-[4-(4-Amino-phenyl)-cyclohexyl]-azetidin-3-ylcarbamoyl}-methyl)-3-trifluoromethyl-benzamide] | 337 nM
16 | CS(=O)(=O)Nc1ccc(C2CCC(N3CC(NC(=O)CNC(=O)c4cccc(C(F)(F)F)c4)C3)CC2)cc1 (stereo not drawn) [Example 16, N-({1-[4-(4-Methanesulfonylamino-phenyl)-cyclohexyl]-azetidin-3-ylcarbamoyl}-methyl)-3-trifluoromethyl-benzamide] | 100 nM
17 | CC(C)(C)NC(=O)Nc1ccc(C2CCC(N3CC(NC(=O)CNC(=O)c4cccc(C(F)(F)F)c4)C3)CC2)cc1 (stereo not drawn) [Example 18, N-[(1-{4-[4-(3-tert-Butyl-ureido)-phenyl]-cyclohexyl}-azetidin-3-ylcarbamoyl)-methyl]-3-trifluoromethyl-benzamide] | > 25000 nM
18 | NC(=O)Nc1ccc(C2CCC(N3CC(NC(=O)CNC(=O)c4cccc(C(F)(F)F)c4)C3)CC2)cc1 (stereo not drawn) [Example 19, 3-Trifluoromethyl-N-({1-[4-(4-ureido-phenyl)-cyclohexyl]-azetidin-3-ylcarbamoyl}-methyl)-benzamide] | 130 nM
19 | N=C(N)Cc1ccc(C2CCC(N3CC(NC(=O)CNC(=O)c4cccc(C(F)(F)F)c4)C3)CC2)cc1 (stereo not drawn) [Example 22, N-({1-[4-(4-Carbamimidoylmethyl-phenyl)-cyclohexyl]-azetidin-3-ylcarbamoyl}-methyl)-3-trifluoromethyl-benzamide] | 8600 nM
20 | O=C(CNC(=O)c1cccc(C(F)(F)F)c1)NC1CN(C2CCC(c3ccc(Cc4nn[nH]n4)cc3)CC2)C1 (stereo not drawn) [Example 23, N-[(1-{4-[4-(2H-Tetrazol-5-ylmethyl)-phenyl]-cyclohexyl}-azetidin-3-ylcarbamoyl)-methyl]-3-trifluoromethyl-benzamide] | 260 nM
21 | O=C(O)Cc1ccc(C2CCC(N3CC(NC(=O)CNC(=O)c4cccc(C(F)(F)F)c4)C3)CC2)cc1 (stereo not drawn) [Example 25, [4-(4-{3-[2-(3-Trifluoromethyl-benzoylamino)-acetylamino]-azetidin-1-yl}-cyclohexyl)-phenyl]-acetic acid] | 320 nM
22 | NC(=O)Cc1ccc(C2CCC(N3CC(NC(=O)CNC(=O)c4cccc(C(F)(F)F)c4)C3)CC2)cc1 (stereo not drawn) [Example 26, N-({1-[4-(4-Carbamoylmethyl-phenyl)-cyclohexyl]-azetidin-3-ylcarbamoyl}-methyl)-3-trifluoromethyl-benzamide] | 70 nM
23 | N#Cc1ccc(C2CCC(N3CC(NC(=O)CNC(=O)c4cccc(C(F)(F)F)c4)C3)CC2)cc1 (stereo not drawn) [Example 27, N-({1-[4-(4-Cyano-phenyl)-cyclohexyl]-azetidin-3-ylcarbamoyl}-methyl)-3-trifluoromethyl-benzamide] | 86 nM
24 | O=C(CNC(=O)c1cccc(C(F)(F)F)c1)NC1CN(C2CCC(c3ccc(-c4nn[nH]n4)cc3)CC2)C1 (stereo not drawn) [Example 28, N-[(1-{4-[4-(2H-Tetrazol-5-yl)-phenyl]-cyclohexyl}-azetidin-3-ylcarbamoyl)-methyl]-3-trifluoromethyl-benzamide] | 200 nM
25 | CS(=O)(=O)c1ccc(C2CCC(N3CC(NC(=O)CNC(=O)c4cccc(C(F)(F)F)c4)C3)CC2)cc1 (stereo not drawn) [Example 29, N-({1-[4-(4-Methanesulfonyl-phenyl)-cyclohexyl]-azetidin-3-ylcarbamoyl}-methyl)-3-trifluoromethyl-benzamide] | 280 nM
26 | CN(C)CCOc1ccc(C2CCC(N3CC(NC(=O)CNC(=O)c4cccc(C(F)(F)F)c4)C3)CC2)cc1 (stereo not drawn) [Example 41, N-[(1-{4-[4-(2-Dimethylamino-ethoxy)-phenyl]-cyclohexyl}-azetidin-3-ylcarbamoyl)-methyl]-3-trifluoromethyl-benzamide] | 160 nM
27 | O=C(CNC(=O)c1cccc(C(F)(F)F)c1)NC1CN(C2CCC(O)(c3ccc(O)cc3)CC2)C1 (stereo not drawn) [Example 42, N-({1-[4-Hydroxy-4-(4-hydroxy-phenyl)-cyclohexyl]-azetidin-3-ylcarbamoyl}-methyl)-3-trifluoromethyl-benzamide] | 130 nM
28 | COC(=O)COc1ccc(C2CCC(N3CC(NC(=O)CNC(=O)c4cccc(C(F)(F)F)c4)C3)CC2)cc1 (stereo not drawn) [Example 43] | 38 nM
29 | O=C(O)COc1ccc(C2CCC(N3CC(NC(=O)CNC(=O)c4cccc(C(F)(F)F)c4)C3)CC2)cc1 (stereo not drawn) [Example 44] | 124 nM
30 | O=C(CNC(=O)c1cccc(C(F)(F)F)c1)NC1CN(C2CCC(O)(c3ccc(C(=O)O)cc3)CC2)C1 (stereo not drawn) [Example 45, 4-(1-Hydroxy-4-{3-[2-(3-trifluoromethyl-benzoylamino)-acetylamino]-azetidin-1-yl}-cyclohexyl)-benzoic acid] | 6900 nM
